Reference: patent publication US10092584B2 (Achillion Pharmaceuticals, Inc., priority 2015, dated 2018)

Molecular target: T1, Human Factor D (Homo sapiens, UniProt P00746)
T1 construct: purified from human serum; purchased Complement Technology, Inc; host or cells: human serum
Test: Human Factor D assay (Example 8)
Format: biochemical
Conditions: not given
Description: Human Factor D (purified from human serum, Complement Technology, Inc.) at 80 nM final concentration was incubated with test compound at various concentrations for 5 minutes at room temperature in 50 mM Tris, 1M NaCl, pH 7.5. A synthetic substrate Z-L-Lys-SBzl and DTNB (Ellman's reagent) are added to final concentrations of 100 μM each. […] IC50 values are calculated by nonlinear regression of complement Factor D reaction rates as a function of test compound concentration.

T1 sequence (P00746 26-253): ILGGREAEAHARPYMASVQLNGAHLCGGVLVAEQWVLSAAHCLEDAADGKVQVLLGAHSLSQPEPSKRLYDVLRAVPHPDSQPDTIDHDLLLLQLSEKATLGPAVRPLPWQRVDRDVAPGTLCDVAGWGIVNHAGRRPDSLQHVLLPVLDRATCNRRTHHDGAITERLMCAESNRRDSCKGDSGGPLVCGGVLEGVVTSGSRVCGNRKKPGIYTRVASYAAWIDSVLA

SMILES | IC50 [nM]
CC(=O)c1cn(CC(=O)N2C[C@H](F)C[C@H]2C(=O)Nc2cccc(SC(F)(F)F)c2)c2cc(O)ccc12 [Compound 48, (2S,4R)-1-(2-(3-acetyl-6-hydroxy-1H-indol-1-yl)acetyl)-4-fluoro-N-(3-(trifluoromethylthio)phenyl)pyrrolidine-2-carboxamide] | < 1000
CC(=O)c1cn(CC(=O)N2C[C@H](F)C[C@H]2C(=O)NCc2cc(P(=O)(O)O)cc(Cl)c2F)c2ccccc12 [Compound 63, 3-(((2S,4R)-1-(2-(3-acetyl-1H-indol-1-yl)acetyl)-4-fluoropyrrolidine-2-carboxamido)methyl)-5-chloro-4-fluorophenylphos-phonic acid] | < 1000
CC(=O)c1cn(CC(=O)N2C[C@H](F)C[C@H]2C(=O)Nc2cccc(-c3ccccc3Cl)c2F)c2c(C#N)cccc12 [Compound 79, (2S,4R)-1-(2-(3-acetyl-7-cyano-1H-indol-1-yl)acetyl)-N-(2′-chloro-2-fluorobiphenyl-3-yl)-4-fluoropyrrolidine-2-carboxamide] | < 1000
NC(=O)c1nn(CC(=O)N2C[C@H](F)C[C@H]2C(=O)Nc2cccc(-c3cc(F)c(F)cc3Cl)c2F)c2ccccc12 [Compound 80, 1-(2-((2S,4R)-2-((2′-Chloro-2,4′,5′-trifluoro-[1,1′-biphenyl]-3-yl)carbamoyl)-4-fluoropyrrolidin-1-yl)-2-oxoethyl)-1H-indazole-3-carboxamide] | < 1000
CC(=O)c1cn(CC(=O)N2C[C@H](F)C[C@H]2C(=O)Nc2cccc(Br)n2)c2ccc(C3(N4C(=O)c5ccccc5C4=O)CC3)cc12 [Compound 81, (2S,4R)-1-(2-(3-acetyl-5-(1-(1,3-dioxoisoindolin-2-yl)cyclopropyl)-1H-indol-1-yl)acetyl)-N-(6-bromopyridin-2-yl)-4-fluoropyrrolidine-2-carboxamide] | < 1000
CC(=O)c1cn(CC(=O)N2C[C@H](F)C[C@H]2C(=O)Nc2cccc(-c3cc(F)c(F)cc3Cl)c2F)c2ccccc12 [Compound 82, (2S,4R)-1-(2-(3-acetyl-1H-indol-1-yl)acetyl)-N-(2′-chloro-2,4′,5′-trifluorobiphenyl-3-yl)-4-fluoropyrrolidine-2-carboxamide] | < 1000

Same assay, conditions: Table 1; Human Factor D 80 nM, substrate Z-L-Lys-SBzl; read-out: IC50

SMILES | IC50 [nM]
CC(=O)c1cn(C(C)C(=O)N2C[C@H](F)C[C@H]2C(=O)NCc2cccc(Cl)c2F)c2ccccc12 (stereo partly drawn) [Compound 55] | > 10000
CC(=O)c1cn(C(C)(C)C(=O)N2C[C@H](F)C[C@H]2C(=O)NCc2cccc(Cl)c2F)c2ccccc12 [Compound 56] | > 10000
O=C(NCc1cccc(Cl)c1F)[C@@H]1C[C@@H](F)CN1C(=O)Cn1nc(P(=O)(O)O)c2ccncc21 [Compound 57] | > 10000
O=C(NCc1cccc(Cl)c1F)[C@@H]1C[C@@H](F)CN1C(=O)CN1C=NS(=O)(=O)c2ccccc21 [Compound 65, (2S,4R)-N-(3-chloro-2-fluorobenzyl)-1-(2-(1,1-dioxido-4H-benzo[e][1,2,4]thiadiazin-4-yl)acetyl)-4-fluoropyrrolidine-2-carboxamide] | > 10000
CC(C)(C)OC(=O)N1CCc2c(n(CC(=O)N3C[C@H](F)C[C@H]3C(=O)NCc3cccc(Cl)c3F)c3ccccc23)C1 [Compound 67, tert-butyl 9-(2-((2S,4R)-2-(3-chloro-2-fluorobenzylcarbamoyl)-4-fluoropyrrolidin-1-yl)-2-oxoethyl)-3,4-dihydro-1H-pyrido[3,4-b]indole-2(9H)-carboxylate] | > 10000
O=C(NCc1cccc(Cl)c1F)[C@@H]1C[C@@H](F)CN1C(=O)Cn1c2c(c3ccccc31)CCNC2 [Compound 68, (2S,4R)-N-(3-chloro-2-fluorobenzyl)-1-(2-(3,4-dihydro-1H-pyrido[3,4-b]indol-9(2H)-yl)acetyl)-4-fluoropyrrolidine-2-carboxamide] | > 10000
CCOC(=O)CC(=O)N1CCc2c(n(CC(=O)N3C[C@H](F)C[C@H]3C(=O)NCc3cccc(Cl)c3F)c3ccccc23)C1 [Compound 70, ethyl 3-(9-(2-((2S,4R)-2-(3-chloro-2-fluorobenzylcarbamoyl)-4-fluoropyrrolidin-1-yl)-2-oxoethyl)-3,4-dihydro-1H-pyrido[3,4-b]indol-2(9H)-yl)-3-oxopropanoate] | > 10000
CC(=O)n1cc(C(=O)C(=O)N2C[C@H](F)C[C@H]2C(=O)NCc2cccc(Cl)c2F)c2ccccc21 [Compound 71, (2S,4R)-1-(2-(1-acetyl-1H-indol-3-yl)-2-oxoacetyl)-N-(3-chloro-2-fluorobenzyl)-4-fluoropyrrolidine-2-carboxamide] | > 10000
O=C(O)CCC(=O)N1CCc2c(n(CC(=O)N3C[C@H](F)C[C@H]3C(=O)NCc3cccc(Cl)c3F)c3ccccc23)C1 [Compound 72, 4-(9-(2-((2S,4R)-2-(3-chloro-2-fluorobenzylcarbamoyl)-4-fluoropyrrolidin-1-yl)-2-oxoethyl)-3,4-dihydro-1H-pyrido[3,4-b]indol-2(9H)-yl)-4-oxobutanoic acid] | > 10000

Next, values leading:

IC50 [nM] | SMILES
> 10000 | N[C@@H](Cc1c[nH]c2ccccc12)C(=O)N1C[C@H](F)C[C@H]1C(=O)NCc1cccc(Cl)c1F [Compound 39, (2S,4R)-1-((S)-2-amino-3-(1H-indol-3-yl)propanoyl)-N-(3-chloro-2-fluorobenzyl)-4-fluoropyrrolidine-2-carboxamide]
< 1000 | CC(=O)c1nn(CC(=O)N2C[C@H](F)C[C@H]2C(=O)Nc2cccc(SC(F)(F)F)c2)c2cnccc12 [Compound 45, (2S,4R)-1-(2-(3-acetyl-1H-pyrazolo[3,4-c]pyridin-1-yl)acetyl)-4-fluoro-N-(3-(trifluoromethylthio)phenyl)pyrrolidine-2-carboxamide]
< 1000 | O=C(NCc1cccc(Cl)c1F)[C@@H]1C[C@@H](F)CN1C(=O)Cn1cc([N+](=O)[O-])c2ccccc21 [Compound 46, (2S,4R)-N-(3-chloro-2-fluorobenzyl)-4-fluoro-1-(2-(3-nitro-1H-indol-1-yl)acetyl)pyrrolidine-2-carboxamide]
< 1000 | CC(=O)Nc1cn(CC(=O)N2C[C@H](F)C[C@H]2C(=O)NCc2cccc(Cl)c2F)c2ccccc12 [Compound 47, (2S,4R)-1-(2-(3-acetamido-1H-indol-1-yl)acetyl)-N-(3-chloro-2-fluorobenzyl)-4-fluoropyrrolidine-2-carboxamide]
> 10000 | O=C(NCc1cccc(Cl)c1F)[C@@H]1C[C@@H](F)CN1C(=O)c1csc(-c2cccnc2)n1 [Compound 50, (2S,4R)-N-(3-chloro-2-fluorobenzyl)-4-fluoro-1-(2-(pyridin-3-yl)thiazole-4-carbonyl)pyrrolidine-2-carboxamide]
> 10000 | CC(=O)Nc1ccc(C(=O)N2C[C@H](F)C[C@H]2C(=O)NCc2cccc(Cl)c2F)cn1 [Compound 51, (2S,4R)-1-(6-acetamidonicotinoyl)-N-(3-chloro-2-fluorobenzyl)-4-fluoropyrrolidine-2-carboxamide]
< 1000 | O=C(NCc1cccc(Cl)c1F)[C@@H]1C[C@@H](F)CN1C(=O)Cn1nc(I)c2ccncc21 [Compound 52, (2S,4R)-N-(3-chloro-2-fluorobenzyl)-4-fluoro-1-(2-(3-iodo-1H-pyrazolo[3,4-c]pyridin-1-yl)acetyl)pyrrolidine-2-carboxamide]
< 1000 | O=C(NCc1cccc(Cl)c1F)[C@@H]1C[C@@H](F)CN1C(=O)Nc1cn(C(=O)C2CC2)c2ccccc12 [Compound 54, (2S,4R)-N2-(3-chloro-2-fluorobenzyl)-N1-(1-(cyclopropanecarbonyl)-1H-indol-3-yl)-4-fluoropyrrolidine-1,2-dicarboxamide]
< 1000 | O=C(NCc1cccc(Cl)c1F)[C@@H]1C[C@@H](F)CN1C(=O)Cn1nc(-c2cn[nH]c2)c2ccncc21 [Compound 73, (2S,4R)-1-(2-(3-(1H-pyrazol-4-yl)-1H-pyrazolo[3,4-c]pyridin-1-yl)acetyl)-N-(3-chloro-2-fluorobenzyl)-4-fluoropyrrolidine-2-carboxamide]
< 1000 | C=C(F)c1nn(CC(=O)N2C[C@H](F)C[C@H]2C(=O)NCc2cccc(Cl)c2F)c2cnccc12 [Compound 74, (2S,4R)-N-(3-chloro-2-fluorobenzyl)-4-fluoro-1-(2-(3-(1-fluorovinyl)-1H-pyrazolo[3,4-c]pyridin-1-yl)acetyl)pyrrolidine-2-carboxamide]
< 1000 | O=C(NCc1cccc(Cl)c1F)[C@@H]1C[C@@H](F)CN1C(=O)Cn1nc(-c2cnc[nH]2)c2ccncc21 [Compound 75, (2S,4R)-1-(2-(3-(1H-imidazol-5-yl)-1H-pyrazolo[3,4-c]pyridin-1-yl)acetyl)-N-(3-chloro-2-fluorobenzyl)-4-fluoropyrrolidine-2-carboxamide]
< 1000 | NS(=O)(=O)c1cn(CC(=O)N2C[C@H](F)C[C@H]2C(=O)NCc2cccc(Cl)c2F)c2ccccc12 [Compound 76, (2S,4R)-N-(3-chloro-2-fluorobenzyl)-4-fluoro-1-(2-(3-sulfamoyl-1H-indol-1-yl)acetyl)pyrrolidine-2-carboxamide]
< 1000 | NC(=O)c1nn(CC(=O)N2[C@@H]3C[C@@H]3C[C@H]2C(=O)Nc2cccc(-c3ccccc3Cl)c2F)cc1Br [Compound 77, (1R,3S,5R)-2-(2-(4-Bromo-3-carbamoyl-1H-pyrazol-1-yl)acetyl)-N-(2′-chloro-2-fluoro-[1,1′-biphenyl]-3-yl)-2-azabicyclo[3.1.0]hexane-3-carboxamide]
< 1000 | NC(=O)c1nn(CC(=O)N2C[C@H](F)C[C@H]2C(=O)Nc2cccc(-c3cc(F)c(F)cc3Cl)c2F)c2cnccc12 [Compound 83, 1-(2-((2S,4R)-2-(2′-chloro-2,4′,5′-trifluorobiphenyl-3-ylcarbamoyl)-4-fluoropyrrolidin-1-yl)-2-oxoethyl)-1H-pyrazolo[3,4-c]pyridine-3-carboxamide]
< 1000 | CC(=O)n1cc(CC(=O)N2C[C@H](F)C[C@H]2C(=O)Nc2cccc(-c3ccccc3Cl)c2F)c2ccsc21 [Compound 90, (2S,4R)-1-(2-(6-acetyl-6H-thieno[2,3-b]pyrrol-4-yl)acetyl)-N-(2′-chloro-2-fluorobiphenyl-3-yl)-4-fluoropyrrolidine-2-carboxamide]
